Measurements taken from ChEMBL document CHEMBL5380791, “Modular Biomimetic Strategy Enabled Discovery of Simplified Pseudo-Natural Macrocyclic P-Glycoprotein Inhibitors Capable of Overcoming Multidrug Resistance” (J Med Chem, 2023).
The source made the active and inactive calls. No cut-off for these calls is given here.

Experiments:
[1] = Cmax in CD-1 mouse at 30 mg/kg, po; assay type: ADME, organism-based; parameters: dose 30 mg/kg, route po; conditions: in vivo
K562/Adr = assay: Reversal of vinorelbine resistance in human K562/Adr cells assessed as reduction in cell viability incubated for 72 hrs in presence of vinorelbine (reference value: 7320.6+/-2115.2 nM); assay type: functional, cell-based
KBv200 [2] = assay: Induction of apoptosis in human KBv200 cells assessed as increase in cleaved caspase 9 level at 5 uM incubated for 24 hrs by Western blotting analysis; assay type: functional, cell-based
KBv200 [3] = assay: Antitumor activity against human KBv200 cells xenografted in Balb/cA nude mouse assessed as mean tumor volume at 75 mg/kg, ip administered as single dose and measured on day 0 in presence of vinorelbine; assay type: functional
[4] = Toxicity in Balb/cA nude mouse xenografted with human KBv200 cells assessed as changes in body weight at 75 mg/kg, ip qd administered for 13 days in presence of vinorelbine; assay type: organism-based; conditions: in vivo, 312 h, time 13 day
KB = assay: Reversal of vinorelbine resistance in human KB cells assessed as reduction in cell viability incubated for 72 hrs in presence of vinorelbine (reference value: 7.4+/-2.2 nM); assay type: functional, cell-based
KBv200 [5] = assay: Antitumor activity against human KBv200 cells xenografted in Balb/cA nude mouse assessed as mean tumor volume at 75 mg/kg, ip qd administered for 13 days in presence of vinorelbine; assay type: functional; conditions: time 13 day
K562 = assay: Reversal of vinorelbine resistance in human K562 cells assessed as reduction in cell viability incubated for 72 hrs in presence of vinorelbine (reference value: 5.9+/-0.2 nM); assay type: functional, cell-based; conditions: K562, 72 h
KBv200 [6] = assay: Reversal of vinorelbine resistance in human KBv200 cells assessed as reduction in cell viability incubated for 72 hrs in presence of vinorelbine (reference value: 224 to 228.30 nM); assay type: functional, cell-based; conditions: KBv200, 72 h, read-out: IC50
[7] = target: ATP-dependent translocase ABCB1 (Homo sapiens, UniProt P08183); assay: Inhibition of P-gp in human KBv200 cells assessed as induction of conformation change by measuring increase in UIC-2 binding level at 50 uM incubated for 10 mins by UIC-2 reactivity shift assay; assay type: cell-based; conditions: kbv200, 10 min
[8] = Toxicity in Balb/cA nude mouse xenografted with human KBv200 cells assessed as changes in body weight at 75 mg/kg, ip qd administered for 13 days; assay type: organism-based; conditions: in vivo, 312 h, time 13 day
[9] = Half life in CD-1 mouse at 3 mg/kg, iv; assay type: ADME, organism-based; conditions: in vivo
KBv200 [10] = assay: Induction of apoptosis in human KBv200 cells assessed as increase in cleaved PARP level at 5 uM incubated for 24 hrs by Western blotting analysis; assay type: functional, cell-based
[11] = AUClast in CD-1 mouse at 30 mg/kg, po; assay type: ADME, organism-based; parameters: dose 30 mg/kg, route po; conditions: in vivo
KBv200 [12] = assay: Downregulation of P-gp mRNA expression level in human KBV200 cells by qRT-PCR analysis; assay type: functional, cell-based
[13] = AUCinf in CD-1 mouse at 25 mg/kg, ip; assay type: ADME, organism-based; parameters: dose 25 mg/kg, route ip; conditions: in vivo
[14] = AUCinf in CD-1 mouse at 3 mg/kg, iv; assay type: ADME, organism-based; parameters: dose 3 mg/kg, route iv; conditions: in vivo
KBv200 [15] = assay: Reversal of paclitaxel resistance in human KBv200 cells assessed as reduction in cell viability incubated for 72 hrs in presence of paclitaxel (reference value: 392.9+/-196.5 nM); assay type: functional, cell-based; conditions: KBv200, 72 h
[16] = Tmax in CD-1 mouse at 30 mg/kg, po; assay type: ADME, organism-based; conditions: in vivo
KBv200 [17] = assay: Antitumor activity against human KBv200 cells xenografted in Balb/cA nude mouse assessed as T/C ratio at 75 mg/kg, ip qd administered for 13 days; assay type: functional; conditions: time 13 day
KBv200 [18] = assay: Induction of apoptosis in human KBv200 cells assessed as increase in cleaved caspase 9 level at 5 uM incubated for 24 hrs in presence of vinorelbine by Western blotting analysis; assay type: functional, cell-based
KBv200 [19] = assay: Induction of apoptosis in human KBv200 cells assessed as increase in cleaved caspase 3 level at 5 uM incubated for 24 hrs by Western blotting analysis; assay type: functional, cell-based
[20] = Oral bioavailability in CD-1 mouse at 30 mg/kg; assay type: ADME, organism-based; conditions: in vivo
KBv200 [21] = assay: Antitumor activity against human KBv200 cells xenografted in Balb/cA nude mouse assessed as mean tumor volume at 75 mg/kg, ip administered as single dose and measured on day 0; assay type: functional
[22] = AUClast in CD-1 mouse at 3 mg/kg, iv; assay type: ADME, organism-based; parameters: dose 3 mg/kg, route iv; conditions: in vivo
[23] = Cytotoxicity against human L02 cells assessed as reduction in cell viability incubated for 48 hrs by CCK-8 assay; assay type: toxicity, cell-based
KBv200 [24] = assay: Antitumor activity against human KBv200 cells xenografted in Balb/cA nude mouse assessed as tumor growth inhibition at 75 mg/kg, ip qd administered for 13 days in presence of vinorelbine; assay type: functional; conditions: KBv200, 312 h, time 13 day
[25] = Half life in CD-1 mouse at 25 mg/kg, ip; assay type: ADME, organism-based; conditions: in vivo
OVCAR-8 = assay: Reversal of vinorelbine resistance in human OVCAR-8 cells assessed as reduction in cell viability incubated for 72 hrs in presence of vinorelbine (reference value: 16.2+/-4.7 nM); assay type: functional, cell-based; conditions: OVCAR-8, 72 h
[26] = Clearance in CD-1 mouse at 3 mg/kg, iv; assay type: ADME, organism-based; conditions: in vivo
[27] = Tmax in CD-1 mouse at 25 mg/kg, ip; assay type: ADME, organism-based; conditions: in vivo
[28] = AUCinf in CD-1 mouse at 30 mg/kg, po; assay type: ADME, organism-based; parameters: dose 30 mg/kg, route po; conditions: in vivo
KBv200 [29] = assay: Reversal of adriamycin resistance in human KBv200 cells assessed as reduction in cell viability incubated for 72 hrs in presence of adriamycin (reference value: 1291.2+/-308.9 nM); assay type: functional, cell-based; conditions: KBv200, 72 h
[30] = AUClast in CD-1 mouse at 25 mg/kg, ip; assay type: ADME, organism-based; parameters: dose 25 mg/kg, route ip; conditions: in vivo
[31] = Cytotoxicity against human HEK293T cells assessed as reduction in cell viability incubated for 48 hrs by CCK-8 assay; assay type: toxicity, cell-based, HEK-293T
KBv200 [32] = assay: Antitumor activity against human KBv200 cells xenografted in Balb/cA nude mouse assessed as T/C ratio at 75 mg/kg, ip qd administered for 13 days in presence of vinorelbine; assay type: functional; conditions: time 13 day
KBv200 [33] = assay: Induction of apoptosis in human KBv200 cells assessed as increase in cleaved caspase 3 level at 5 uM incubated for 24 hrs in presence of vinorelbine by Western blotting analysis; assay type: functional, cell-based
[34] = Bioavailability in CD-1 mouse at 25 mg/kg, ip; assay type: ADME, organism-based; conditions: in vivo
KBv200 [35] = assay: Reversal fold, ratio of vinorelbine IC50 for cytotoxicity against human KBv200 cells over test compound IC50 for reversal of vinorelbine resistance in human KBv200 cells; assay type: functional
KBv200 [36] = assay: Induction of apoptosis in human KBv200 cells assessed as increase in cleaved PARP level at 5 uM incubated for 24 hrs in presence of vinorelbine by Western blotting analysis; assay type: functional, cell-based
[37] = Toxicity in Balb/cA nude mouse xenografted with human KBv200 cells assessed as mortality at 75 mg/kg, ip qd administered for 13 days in presence of vinorelbine; assay type: organism-based; conditions: in vivo, 312 h, time 13 day
[38] = Toxicity in Balb/cA nude mouse xenografted with human KBv200 cells assessed as mortality at 75 mg/kg, ip qd administered for 13 days; assay type: organism-based; conditions: in vivo, 312 h, time 13 day
NCI/ADR-RES = assay: Reversal of vinorelbine resistance in human NCI/ADR-RES cells assessed as reduction in cell viability incubated for 72 hrs in presence of vinorelbine (reference value: 6125.7+/-3267.7 nM); assay type: functional, cell-based
KBv200 [39] = assay: Antitumor activity against human KBv200 cells xenografted in Balb/cA nude mouse assessed as tumor growth inhibition at 75 mg/kg, ip qd administered for 13 days; assay type: functional; conditions: KBv200, 312 h, time 13 day
[40] = Cmax in CD-1 mouse at 25 mg/kg, ip; assay type: ADME, organism-based; parameters: dose 25 mg/kg, route ip; conditions: in vivo
[41] = Half life in CD-1 mouse at 30 mg/kg, po; assay type: ADME, organism-based; conditions: in vivo
KBv200 [42] = assay: Antitumor activity against human KBv200 cells xenografted in Balb/cA nude mouse assessed as mean tumor volume at 75 mg/kg, ip qd administered for 13 days; assay type: functional; conditions: time 13 day

ATP-dependent translocase ABCB1, sequence (P08183 whole entry): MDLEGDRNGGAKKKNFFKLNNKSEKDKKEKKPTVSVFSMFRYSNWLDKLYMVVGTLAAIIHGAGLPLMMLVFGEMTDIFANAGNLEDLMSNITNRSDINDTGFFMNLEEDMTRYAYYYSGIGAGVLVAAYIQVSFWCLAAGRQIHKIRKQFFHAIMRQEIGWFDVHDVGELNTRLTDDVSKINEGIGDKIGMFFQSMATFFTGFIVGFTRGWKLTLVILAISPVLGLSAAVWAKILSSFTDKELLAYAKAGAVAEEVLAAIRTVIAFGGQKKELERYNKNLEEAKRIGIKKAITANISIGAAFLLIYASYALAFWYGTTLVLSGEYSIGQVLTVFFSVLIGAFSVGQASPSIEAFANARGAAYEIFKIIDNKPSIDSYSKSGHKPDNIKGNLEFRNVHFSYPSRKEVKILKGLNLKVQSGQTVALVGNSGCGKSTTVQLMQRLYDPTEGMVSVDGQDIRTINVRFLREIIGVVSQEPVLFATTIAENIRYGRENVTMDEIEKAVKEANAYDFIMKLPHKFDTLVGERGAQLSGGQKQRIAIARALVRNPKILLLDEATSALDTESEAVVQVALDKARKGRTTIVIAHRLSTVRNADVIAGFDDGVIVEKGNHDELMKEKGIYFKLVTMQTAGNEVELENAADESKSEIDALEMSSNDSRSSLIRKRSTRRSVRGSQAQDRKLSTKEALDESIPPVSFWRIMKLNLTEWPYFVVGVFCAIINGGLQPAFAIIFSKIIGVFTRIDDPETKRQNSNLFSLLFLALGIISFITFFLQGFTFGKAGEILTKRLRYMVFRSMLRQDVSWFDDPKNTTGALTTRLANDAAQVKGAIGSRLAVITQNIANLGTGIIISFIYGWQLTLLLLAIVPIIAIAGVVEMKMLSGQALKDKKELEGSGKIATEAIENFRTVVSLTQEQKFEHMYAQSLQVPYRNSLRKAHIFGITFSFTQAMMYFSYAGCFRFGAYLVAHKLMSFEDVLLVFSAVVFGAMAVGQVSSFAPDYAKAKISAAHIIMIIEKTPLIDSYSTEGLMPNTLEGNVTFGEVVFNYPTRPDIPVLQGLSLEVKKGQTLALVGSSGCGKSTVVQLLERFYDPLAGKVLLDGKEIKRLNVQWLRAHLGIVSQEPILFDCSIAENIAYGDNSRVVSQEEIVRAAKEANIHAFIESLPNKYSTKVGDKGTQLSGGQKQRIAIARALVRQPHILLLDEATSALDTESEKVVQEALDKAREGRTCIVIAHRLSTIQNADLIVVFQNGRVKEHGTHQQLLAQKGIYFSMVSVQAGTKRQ

## CC(C)[C@H]1NC(=O)/C(c2ccccc2)=C\C=C(\c2ccccc2)CNC(=O)CCCCCCCCCCCNC1=O
[1]
  Cmax: 1380 ng/mL
K562/Adr
  IC50: 1210 nM
KBv200 [2]
  Activity: inactive
KBv200 [3]
  Activity: 121.5 mm3
[4]
  Activity: Non-Toxic
KB
  IC50: 2.2 nM
KBv200 [5]
  Activity: 1132.6 mm3
K562
  IC50: 1.4 nM
KBv200 [6]
  IC50: 0.74 nM
[7]
  Activity: Active
[8]
  Activity: Non-Toxic
[9]
  half-life: 73.8 min
KBv200 [10]
  Activity: inactive
[11]
  AUC(0-t): 2190 ng·h/mL
KBv200 [12]
  Activity: inactive
[13]
  AUC(0-inf): 5100 ng·h/mL
[14]
  AUC(0-inf): 888 ng·h/mL
KBv200 [15]
  IC50: 8 nM
[16]
  Tmax: 15 min
KBv200 [17]
  T/C: 113%
KBv200 [18]
  Activity: Active
KBv200 [19]
  Activity: inactive
[20]
  bioavailability: 24.7%
KBv200 [21]
  Activity: 121 mm3
[22]
  AUC(0-t): 887 ng·h/mL
[23]
  IC50 at 48 h: > 100 µM
KBv200 [24]
  inhibition in vivo at 75 mg/kg: 48%
[25]
  half-life: 672 min
OVCAR-8
  IC50: 6.8 nM
[26]
  clearance: 58.2 mL/min/kg
[27]
  Tmax: 7.2 min
[28]
  AUC(0-inf): 2200 ng·h/mL
KBv200 [29]
  IC50: 107 nM
[30]
  AUC(0-t): 4400 ng·h/mL
[31]
  IC50 at 48 h: > 100 µM
KBv200 [32]
  T/C: 52%
KBv200 [33]
  Activity: Active
[34]
  bioavailability: 59.5%
KBv200 [35]
  Ratio IC50: 386
KBv200 [36]
  Activity: Active
[37]
  Activity: Non-Toxic
[38]
  Activity: Non-Toxic
NCI/ADR-RES
  IC50: 619 nM
KBv200 [39]
  inhibition in vivo at 75 mg/kg: -13%
[40]
  Cmax: 2390 ng/mL
[41]
  half-life: 74.4 min
KBv200 [42]
  Activity: 2318.6 mm3
